Article PMC8716824, “Design, Synthesis and Anti-Lung Cancer Evaluation of 1, 2, 3-Triazole Tethered Dihydroartemisinin-Isatin Hybrids” (Frontiers in Pharmacology, 2021)
pIC50: −log10 of the molar value. Read-outs that look alike come from different tables or passages of the source.

Legend:
[1] = test system: cisplatin-resistant A549 (A549/DDP) lung cancer cells; assay: MTT antiproliferative assay, A549/DDP; type: cell-based
Procedure: (§1) The antiproliferative activity of 1,2,3-triazole tethered dihydroartemisinin-isatin hybrids 8a-c and 9a-k against A549, multidrug-resistant A549/DOX and A549/DDP lung cancer cell lines as well as cytotoxicity towards mouse embryonic fibroblast cells NIH/3T3 were assessed by 3-(4,5-dimethylthiazol-2-yl)-2,5-diphenyltetrazolium bromide (MTT) assay, and half maximal inhibitory concentration (IC50) values were listed in Table 2. A549, A549/DOX, and A549/DDP lung cancer cells (2 × 10^3) were plated in each well of a 96-well plate and were allowed to adhere and spread for 24 h. The 1,2,3-triazole tethered dihydroartemisinin-isatin hybrids 8a-c and 9a-k were added to a final concentration of 100 μM, and the cells were cultured for 24 h at 37°C. 3-(4,5-dimethyl-2-thiazolyl)-2,5-diphenyltetrazolium bromide (MTT) solution (10 µL) was added to each well, and the cultures were incubated for an additional 4 h. A further 100 µL of […] was added and incubation continued overnight. The absorbance at 540 nm was determined in each well with a 96-well plate reader. The growth of the treated cells was compared with that of untreated cells.

[2] = test system: mouse embryonic fibroblast cells NIH/3T3; assay: MTT cytotoxicity assay, NIH/3T3; type: cell-based; conditions: for SI (selectivity index): IC50(NIH/3T3)/IC50(A549); for pIC50: cytotoxicity, NIH/3T3 cells, MTT (called CC50 in method)
Procedure: The antiproliferative activity of 1,2,3-triazole tethered dihydroartemisinin-isatin hybrids 8a-c and 9a-k against A549, multidrug-resistant A549/DOX and A549/DDP lung cancer cell lines as well as cytotoxicity towards mouse embryonic fibroblast cells NIH/3T3 were assessed by 3-(4,5-dimethylthiazol-2-yl)-2,5-diphenyltetrazolium bromide (MTT) assay, and half maximal inhibitory concentration (IC50) values were listed in Table 2.
The cytotoxicity (CC50) of the synthesized 1,2,3-triazole tethered dihydroartemisinin-isatin hybrids 8a-c and 9a-k were examined by the MTT assay in mouse embryonic fibroblast cells NIH/3T3. The compounds were dissolved in DMSO with concentrations from 1,024 to 1 μg/ml. The NIH/3T3 cells were maintained in culture medium at 37°C under 5% CO2 atmosphere. Cells were seeded in 96-well plates (1 × 10^4 cell per well) and allowed to recover for 24 h. After 72 h of exposure, cells were harvested and cell viability was assessed by MTT assay. The CC50 values were calculated by Bliss analy.

A549 lung cancer cells = assay: MTT antiproliferative assay, A549; type: cell-based
Procedure: as §1

[3] = test system: doxorubicin-resistant A549 (A549/DOX) lung cancer cells; assay: MTT antiproliferative assay, A549/DOX; type: cell-based
Procedure: as §1

[4] = test system: A549, A549/DOX and A549/DDP lung cancer cell lines; assay: MTT antiproliferative assay, ranges pooled over lung cancer cell lines; type: cell-based
Procedure: as §1

[5] = Stability in mouse liver microsomes; type: in vitro ADME
Procedure: (§2) The metabolic stability of selected hybrids 8a,c and 9i was assessed in mouse and human microsomes, and the results were listed in Table 3.

[6] = Stability in human liver microsomes; type: in vitro ADME
Procedure: as §2

[7] = range over the three lung cancer cell lines, read-out: IC50, range over A549, A549/DOX and A549/DDP

pIC50 ([1]; A549/DDP)	pIC50 (A549 lung cancer cells; Homo sapiens)	pIC50 ([3]; Homo sapiens)	pIC50 ([4]; Homo sapiens, range over A549 and A549/DOX, read-out: IC50, range over A549 and A549/DOX)	pIC50 [4, 7]	Liver microsomes, Mouse [5] [%]	Liver microsomes, Human [6] [%]	SMILES	SI (selectivity index) [2]	pIC50 ([2]; Mus musculus, NIH3T3)	pIC50 [1]	pIC50 [2]	pIC50 ([4]; range over A549 and A549/DOX, read-out: IC50, range over A549 and A549/DOX)	pIC50 (A549 lung cancer cells)	pIC50 [3]
4.71	4.67	4.49					COc1ccc2c(c1)C(=O)C(=O)N2CCn1cc(COC2O[C@@H]3O[C@@]4(C)CC[C@H]5[C@H](C)CC[C@@H]([C@H]2C)[C@@]35OO4)nn1 (stereo partly drawn) [8b, 5-methoxy-1-(2-(4-((((3R,5aS,6R,8aS,9R,12R,12aR)-3,6,9-trimethyldecahydro-12H-3,12-epoxy[1,2]dioxepino[4,3-i]isochromen-10-yl)oxy)methyl)-1H-1,2,3-triazol-1-yl)ethyl)indoline-2,3-dione]	>4.6	< 4.00					
4.51	4.79	4.42					C[C@@H]1CC[C@H]2[C@@H](C)C(OCc3cn(CCN4C(=O)C(=NNC(N)=S)c5ccccc54)nn3)O[C@@H]3O[C@@]4(C)CC[C@@H]1[C@]32OO4 (stereo partly drawn) [9a, 2-(2-oxo-1-(2-(4-((((3R,5aS,6R,8aS,9R,12R,12aR)-3,6,9-trimethyldecahydro-12H-3,12-epoxy[1,2]dioxepino[4,3-i]isochromen-10-yl)oxy)methyl)-1H-1,2,3-triazol-1-yl)ethyl)indolin-3-ylidene)hydrazine-1-carbothioamide]	>6.1	< 4.00					
4.52	4.92	4.58					C[C@@H]1CC[C@H]2[C@@H](C)C(OCc3cn(CCN4C(=O)C(=NO)c5ccccc54)nn3)O[C@@H]3O[C@@]4(C)CC[C@@H]1[C@]32OO4 (stereo partly drawn) [9b, 3-(hydroxyimino)-1-(2-(4-((((3R,5aS,6R,8aS,9R,12R,12aR)-3,6,9-trimethyldecahydro-12H-3,12-epoxy[1,2]dioxepino[4,3-i]isochromen-10-yl)oxy)methyl)-1H-1,2,3-triazol-1-yl)ethyl)indolin-2-one]	>8.3	< 4.00					
4.56	4.64	4.71					CON=C1C(=O)N(CCn2cc(COC3O[C@@H]4O[C@@]5(C)CC[C@H]6[C@H](C)CC[C@@H]([C@H]3C)[C@@]46OO5)nn2)c2ccccc21 (stereo partly drawn) [9c, 3-(methoxyimino)-1-(2-(4-((((3R,5aS,6R,8aS,9R,12R,12aR)-3,6,9-trimethyldecahydro-12H-3,12-epoxy[1,2]dioxepino[4,3-i]isochromen-10-yl)oxy)methyl)-1H-1,2,3-triazol-1-yl)ethyl)indolin-2-one]	>4.4	< 4.00					
4.47	4.59	4.68					CCON=C1C(=O)N(CCn2cc(COC3O[C@@H]4O[C@@]5(C)CC[C@H]6[C@H](C)CC[C@@H]([C@H]3C)[C@@]46OO5)nn2)c2ccccc21 (stereo partly drawn) [9d, 3-(ethoxyimino)-1-(2-(4-((((3R,5aS,6R,8aS,9R,12R,12aR)-3,6,9-trimethyldecahydro-12H-3,12-epoxy[1,2]dioxepino[4,3-i]isochromen-10-yl)oxy)methyl)-1H-1,2,3-triazol-1-yl)ethyl)indolin-2-one]	>3.9	< 4.00					
4.52	4.79	4.50					C[C@@H]1CC[C@H]2[C@@H](C)C(OCc3cn(CCN4C(=O)C(=NOCc5ccccc5)c5ccccc54)nn3)O[C@@H]3O[C@@]4(C)CC[C@@H]1[C@]32OO4 (stereo partly drawn) [9e, 3-((benzyloxy)imino)-1-(2-(4-((((3R,5aS,6R,8aS,9R,12R,12aR)-3,6,9-trimethyldecahydro-12H-3,12-epoxy[1,2]dioxepino[4,3-i]isochromen-10-yl)oxy)methyl)-1H-1,2,3-triazol-1-yl)ethyl)indolin-2-one]	>6.1	< 4.00					
4.29	4.18	4.10					CON=C1C(=O)N(CCn2cc(COC3O[C@@H]4O[C@@]5(C)CC[C@H]6[C@H](C)CC[C@@H]([C@H]3C)[C@@]46OO5)nn2)c2ccc(OC)cc21 (stereo partly drawn) [9f, 5-methoxy-3-(methoxyimino)-1-(2-(4-((((3R,5aS,6R,8aS,9R,12R,12aR)-3,6,9-trimethyldecahydro-12H-3,12-epoxy[1,2]dioxepino[4,3-i]isochromen-10-yl)oxy)methyl)-1H-1,2,3-triazol-1-yl)ethyl)indolin-2-one]	>1.5	< 4.00					
4.21	4.13	4.35					CCON=C1C(=O)N(CCn2cc(COC3O[C@@H]4O[C@@]5(C)CC[C@H]6[C@H](C)CC[C@@H]([C@H]3C)[C@@]46OO5)nn2)c2ccc(OC)cc21 (stereo partly drawn) [9g, 3-(ethoxyimino)-5-methoxy-1-(2-(4-((((3R,5aS,6R,8aS,9R,12R,12aR)-3,6,9-trimethyldecahydro-12H-3,12-epoxy[1,2]dioxepino[4,3-i]isochromen-10-yl)oxy)methyl)-1H-1,2,3-triazol-1-yl)ethyl)indolin-2-one]	>1.3	< 4.00					
4.23	4.35	4.11					COc1ccc2c(c1)C(=NOCc1ccccc1)C(=O)N2CCn1cc(COC2O[C@@H]3O[C@@]4(C)CC[C@H]5[C@H](C)CC[C@@H]([C@H]2C)[C@@]35OO4)nn1 (stereo partly drawn) [9h, 3-((benzyloxy)imino)-5-methoxy-1-(2-(4-((((3R,5aS,6R,8aS,9R,12R,12aR)-3,6,9-trimethyldecahydro-12H-3,12-epoxy[1,2]dioxepino[4,3-i]isochromen-10-yl)oxy)methyl)-1H-1,2,3-triazol-1-yl)ethyl)indolin-2-one]	>2.2	< 4.00					
4.84	5.04	4.80	4.80 to 5.12	4.80 to 5.04	46	60	C[C@@H]1CC[C@H]2[C@@H](C)C(OCc3cn(CCN4C(=O)C(=NO)c5cc(F)ccc54)nn3)O[C@@H]3O[C@@]4(C)CC[C@@H]1[C@]32OO4 (stereo partly drawn) [9i, 5-fluoro-3-(hydroxyimino)-1-(2-(4-((((3R,5aS,6R,8aS,9R,12R,12aR)-3,6,9-trimethyldecahydro-12H-3,12-epoxy[1,2]dioxepino[4,3-i]isochromen-10-yl)oxy)methyl)-1H-1,2,3-triazol-1-yl)ethyl)indolin-2-one]	>11.0	< 4.00					
4.42	5.02	4.89					CON=C1C(=O)N(CCn2cc(COC3O[C@@H]4O[C@@]5(C)CC[C@H]6[C@H](C)CC[C@@H]([C@H]3C)[C@@]46OO5)nn2)c2ccc(F)cc21 (stereo partly drawn) [9j, 5-fluoro-3-(methoxyimino)-1-(2-(4-((((3R,5aS,6R,8aS,9R,12R,12aR)-3,6,9-trimethyldecahydro-12H-3,12-epoxy[1,2]dioxepino[4,3-i]isochromen-10-yl)oxy)methyl)-1H-1,2,3-triazol-1-yl)ethyl)indolin-2-one]	>10.4	< 4.00					
4.54	4.80	4.51					CCON=C1C(=O)N(CCn2cc(COC3O[C@@H]4O[C@@]5(C)CC[C@H]6[C@H](C)CC[C@@H]([C@H]3C)[C@@]46OO5)nn2)c2ccc(F)cc21 (stereo partly drawn) [9k, 3-(ethoxyimino)-5-fluoro-1-(2-(4-((((3R,5aS,6R,8aS,9R,12R,12aR)-3,6,9-trimethyldecahydro-12H-3,12-epoxy[1,2]dioxepino[4,3-i]isochromen-10-yl)oxy)methyl)-1H-1,2,3-triazol-1-yl)ethyl)indolin-2-one]	>6.3	< 4.00					
< 4.00	< 4.00	< 4.00		< 4.00			C[C@@H]1CC[C@H]2[C@@H](C)C(=O)O[C@@H]3O[C@@]4(C)CC[C@@H]1[C@]32OO4 [Artemisinin]		< 4.00					
4.12	4.16	4.06		4.06 to 4.16			C[C@H]1[C@@H](O)O[C@@H]2O[C@@]3(C)CC[C@H]4[C@H](C)CC[C@@H]1[C@@]24OO3 [DHA, Dihydroartemisinin]	>1.4	< 4.00					

SMILES	pIC50 ([1]; A549/DDP)	pIC50 (A549 lung cancer cells; Homo sapiens)	pIC50 ([3]; Homo sapiens)	pIC50 ([4]; Homo sapiens, range over A549 and A549/DOX, read-out: IC50, range over A549 and A549/DOX)	pIC50 [4, 7]	Liver microsomes, Mouse [5] [%]	Liver microsomes, Human [6] [%]	SI (selectivity index) [2]	pIC50 ([2]; Mus musculus, NIH3T3)	pIC50 [1]	pIC50 [2]	pIC50 ([4]; range over A549 and A549/DOX, read-out: IC50, range over A549 and A549/DOX)	pIC50 (A549 lung cancer cells)	pIC50 [3]
N.N.[Cl][Pt][Cl] [cisplatin, reference compound]					4.17 to 5.03					4.17	< 4.00	4.71 to 5.03	5.03	4.71
